Experimental data as given in patent US10975068B2, “6-aminopyridin-3-yl thiazoles as modulators of RORγT” (Janssen Pharmaceutica NV, priority 2016, dated 2021).
Like-named read-outs stand apart in the source and are kept apart here.

Experiments:
[1] = target: human RORγt ligand binding domain (RORγt LBD) (Homo sapiens (Human), UniProt P51449); test: RORγt ThermoFluor® assay (thermal shift binding); details: read-out: ThermoFluor® Assay, Kd
Summary of the method: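 His-tagged human RORγt LBD (0.065 mg/mL) with 60 μM 1,8-ANS in 100 mM Hepes pH 7.0, 10 mM NaCl, 2.5 mM GSH, 0.002% Tween-20 was heated at 1 °C/min.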

[2] = target: full-length human RORγt (Homo sapiens (Human), UniProt P51449); test: RORγt (full-length human) reporter assay, Conditions B or C; type: cell-based; details: for inhibition at 3 µM: at 3 μM compound concentration; for RORγt (FL) Reporter Assay B or C, % inhibition (value marked *): marked *: footnote not given
Summary of the method: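 HEK293T cells transiently co-transfected with GAL4-DBD–full-length human RORγt (nt 142-1635, NM_001001523.1) plus GAL4-firefly and CMV-Renilla luciferase reporters; compounds added 4-6 h post-transfection for 16-20 h in 1.3% FBS, 0.1% DMSO. Firefly signal normalized to DMSO and saturating reference compound, then to Renilla; IC50 from concentration plots.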

[3] = read-out: RORγt (FL) Reporter Assay B or C, % inhibition
[4] = read-out: RORγt (FL) Reporter Assay B or C, IC50
[5] = Conditions B or C, read-out: RORγt (FL) Reporter Assay B or C, IC50
[6] = RORγt (FL) Reporter Assay B or C, IC50

Chain of full-length human RORγt (P51449 other isoform, or with tags, fused parts or gaps): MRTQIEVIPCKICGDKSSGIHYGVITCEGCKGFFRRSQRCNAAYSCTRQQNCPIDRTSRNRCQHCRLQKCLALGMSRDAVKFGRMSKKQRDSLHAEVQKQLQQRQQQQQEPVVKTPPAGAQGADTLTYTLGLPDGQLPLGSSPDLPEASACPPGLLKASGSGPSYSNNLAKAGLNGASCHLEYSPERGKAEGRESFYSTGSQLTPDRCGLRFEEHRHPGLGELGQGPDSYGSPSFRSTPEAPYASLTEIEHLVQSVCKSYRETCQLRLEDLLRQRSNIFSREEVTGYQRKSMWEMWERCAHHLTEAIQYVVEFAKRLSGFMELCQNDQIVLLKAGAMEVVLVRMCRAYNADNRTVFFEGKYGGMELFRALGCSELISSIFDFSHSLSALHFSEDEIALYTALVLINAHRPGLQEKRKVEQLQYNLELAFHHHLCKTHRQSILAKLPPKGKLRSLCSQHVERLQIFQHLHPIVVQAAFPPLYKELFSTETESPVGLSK
Chain of human RORγt ligand binding domain (RORγt LBD) (P51449 other isoform, or with tags, fused parts or gaps): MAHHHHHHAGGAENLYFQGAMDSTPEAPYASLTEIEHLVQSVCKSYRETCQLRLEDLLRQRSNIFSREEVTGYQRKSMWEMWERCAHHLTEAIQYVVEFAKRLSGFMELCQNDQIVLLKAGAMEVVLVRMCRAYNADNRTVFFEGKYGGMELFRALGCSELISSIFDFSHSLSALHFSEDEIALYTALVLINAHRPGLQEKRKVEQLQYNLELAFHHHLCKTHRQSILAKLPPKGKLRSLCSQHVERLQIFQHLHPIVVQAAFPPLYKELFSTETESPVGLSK

Structure (SMILES)	Kd [1] [µM]	inhibition at 3 µM [2, 3] [%]	IC50 [2, 4] [µM]	IC50 [2, 5] [µM]	RORγt (FL) Reporter Assay B or C, % inhibition (value marked *) ([2]; Conditions B or C)	IC50 [2, 6] [µM]	inhibition at 1 µM ([2]; at 1 μM compound concentration, read-out: RORγt (FL) Reporter Assay B or C, % inhibition) [%]	IC50 ([2]; RORγt (FL) Reporter Assay B or C, IC50 (μM), Conditions B or C) [µM]
C[C@H](Nc1cc(C(F)F)c(-c2sc(C(=O)N[C@@H]3CCC[C@H]3O)nc2C(=O)N2CC(F)(F)C[C@@H]2C)cn1)C(F)(F)F [Example 420, 4-[(2S)-4,4-Difluoro-2-methyl-pyrrolidine-1-carbonyl]-5-[4-(difluoromethyl)-6-[[(1S)-2,2,2-trifluoro-1-methyl-ethyl]amino]-3-pyridyl]-N-[(1R,2R)-2-hydroxycyclopentyl]thiazole-2-carboxamide]	0.00073	103	0.032					
C[C@H]1CCCN1C(=O)c1nc(C(=O)NCC(C)(C)O)sc1-c1cnc(NC2(C)CCC2)cc1C(F)(F)F [Example 77, (S)—N-(2-Hydroxy-2-methylpropyl)-5-(6-((1-methylcyclobutyl)amino)-4-(trifluoromethyl)pyridin-3-yl)-4-(2-methylpyrrolidine-1-carbonyl)thiazole-2-carboxamide]	0.0013			0.017	108* %			
C[C@H]1CC(F)(F)CN1C(=O)c1nc(C(=O)N[C@H](C)C(C)(C)O)sc1-c1cnc(NC2(C)CCC2)cc1C(F)F [Example 325, 4-((S)-4,4-Difluoro-2-methylpyrrolidine-1-carbonyl)-5-(4-(difluoromethyl)-6-((1-methylcyclobutyl)amino)pyridin-3-yl)-N—((R)-3-hydroxy-3-methylbutan-2-yl)thiazole-2-carboxamide]	0.0012	96	0.12					
C[C@H]1CCCN1C(=O)c1nc(C(=O)N2C[C@@H]3C[C@H]2CO3)sc1-c1cnc(NC(C)(C)C)cc1C(F)(F)F [Example 360, [5-[6-(tert-Butylamino)-4-(trifluoromethyl)-3-pyridyl]-2-[(1S,4S)-2-oxa-5-azabicyclo[2.2.1]heptane-5-carbonyl]thiazol-4-yl]-[(2S)-2-methylpyrrolidin-1-yl]methanone]	0.01	106	0.082					
CC[C@@H](Nc1cc(C(F)F)c(-c2sc(C(=O)NCC(C)(C)O)nc2C(=O)N2C3CCC2CC3)cn1)C1CC1 (stereo in doubt) [Example 164]	0.0046			0.023	105* %			
C[C@H](Nc1cc(C(F)F)c(-c2sc(C(=O)NC3CCC3O)nc2C(=O)N2C3CCC2CC3)cn1)C(F)(F)F (stereo partly drawn) [Example 290, 4-((1s,4s)-7-Azabicyclo[2.2.1]heptane-7-carbonyl)-5-(4-(difluoromethyl)-6-(((S)-1,1,1-trifluoropropan-2-yl)amino)pyridin-3-yl)-N-(-trans-2-hydroxycyclobutyl)thiazole-2-carboxamide]	0.0063	103	0.0065					
CCC(C)(C)Nc1cc(C(F)F)c(-c2sc(C(=O)NCC(C)(C)O)nc2C(=O)N2C3CCC2CC3)cn1 [Example 93, 4-((1s,4s)-7-Azabicyclo[2.2.1]heptane-7-carbonyl)-5-(4-(difluoromethyl)-6-(tert-pentylamino)pyridin-3-yl)-N-(2-hydroxy-2-methylpropyl)thiazole-2-carboxamide]	0.0011			0.01	121* %			
CC(C)(C)Nc1cc(C(F)F)c(-c2sc(C(=O)N[C@H]3CCC[C@@H]3O)nc2C(=O)N2C3CCC2CC3)cn1 [Example 440, 4-((1s,4s)-7-Azabicyclo[2.2.1]heptane-7-carbonyl)-5-[6-(tert-butylamino)-4-(difluoromethyl)-3-pyridyl]-N-[(1S,2S)-2-hydroxycyclopentyl]thiazole-2-carboxamide]	0.00072	104				0.031		
O=C(N[C@H]1COC[C@@H]1O)c1nc(C(=O)N2C3CCC2CC3)c(-c2cnc(N[C@@H](C3CC3)C(F)(F)F)cc2C(F)F)s1 [Example 417, 4-((1s,4s)-7-Azabicyclo[2.2.1]heptane-7-carbonyl)-5-[6-[[(1S)-1-cyclopropyl-2,2,2-trifluoro-ethyl]amino]-4-(difluoromethyl)-3-pyridyl]-N-[(3S,4R)-4-hydroxytetrahydrofuran-3-yl]thiazole-2-carboxamide]	0.0024					0.028	94	
CC[C@H](Nc1cc(C(F)(F)F)c(-c2sc(C(=O)NCC(C)(C)O)nc2C(=O)N2C3CCC2CC3)cn1)C(F)(F)F [Example 101, 4-((1s,4s)-7-Azabicyclo[2.2.1]heptane-7-carbonyl)-N-(2-hydroxy-2-methylpropyl)-5-(6-(((S)-1,1,1-trifluorobutan-2-yl)amino)-4-(trifluoromethyl)pyridin-3-yl)thiazole-2-carboxamide]	0.0032				107* %			0.019

Second part, led by results:

Kd [1] [µM]	inhibition at 3 µM [2, 3] [%]	IC50 [2, 4] [µM]	IC50 [2, 5] [µM]	Structure (SMILES)	RORγt (FL) Reporter Assay B or C, % inhibition (value marked *) ([2]; Conditions B or C)	IC50 [2, 6] [µM]	inhibition at 1 µM ([2]; at 1 μM compound concentration, read-out: RORγt (FL) Reporter Assay B or C, % inhibition) [%]	IC50 ([2]; RORγt (FL) Reporter Assay B or C, IC50 (μM), Conditions B or C) [µM]
0.0038	98	0.046		C[C@H]1CCCN1C(=O)c1nc(C(=O)N[C@H]2C[C@H](O)C2)sc1-c1cnc(N[C@H](C2CC2)C(F)(F)F)cc1C(F)F [Example 320, 5-(6-(((R)-1-Cyclopropyl-2,2,2-trifluoroethyl)amino)-4-(difluoromethyl)pyridin-3-yl)-N-((1r,3S)-3-hydroxycyclobutyl)-4-((S)-2-methylpyrrolidine-1-carbonyl)thiazole-2-carboxamide]				
0.0051	102	0.092		C[C@H](NC(=O)c1nc(C(=O)N2CCC[C@@H]2C)c(-c2cnc(N[C@H](C)C(F)(F)F)cc2C(F)F)s1)C(C)(C)O [Example 304, 5-(4-(Difluoromethyl)-6-(((R)-1,1,1-trifluoropropan-2-yl)amino)pyridin-3-yl)-N—((S)-3-hydroxy-3-methylbutan-2-yl)-4-((S)-2-methylpyrrolidine-1-carbonyl)thiazole-2-carboxamide]				
0.0029	108	0.014		C[C@H]1CCCN1C(=O)c1nc(C(=O)NCC(C)(C)O)sc1-c1cnc(N[C@@H](C2CC2)C(F)(F)F)cc1C(F)F [Example 295]				
0.0063	103	0.036		C[C@H](Nc1cc(C(F)F)c(-c2sc(C(=O)NC3CN(S(C)(=O)=O)C3)nc2C(=O)N2CCC[C@@H]2C)cn1)C(F)(F)F [Example 409, 5-[4-(Difluoromethyl)-6-[[(1S)-2,2,2-trifluoro-1-methyl-ethyl]amino]-3-pyridyl]-4-[(2S)-2-methylpyrrolidine-1-carbonyl]-N-(1-methylsulfonylazetidin-3-yl)thiazole-2-carboxamide]				
0.01			0.022	CC[C@H](Nc1cc(C(F)F)c(-c2sc(C(=O)N[C@H]3C[C@H](O)C3)nc2C(=O)N2CCC[C@@H]2C)cn1)C(F)(F)F [Example 233, 5-[4-(Difluoromethyl)-6-[[(1S)-1-(trifluoromethyl)propyl]amino]-3-pyridyl]-N-((1r,3S)-3-hydroxycyclobutyl)-4-[(2S)-2-methylpyrrolidine-1-carbonyl]thiazole-2-carboxamide]	124* %			
0.0011	97	0.064		C[C@H](Nc1cc(C(F)F)c(-c2sc(C(=O)N[C@H]3CC[C@H](O)C3)nc2C(=O)N2CC(F)(F)C[C@@H]2C)cn1)C(F)(F)F [Example 415, 4-[(2S)-4,4-Difluoro-2-methyl-pyrrolidine-1-carbonyl]-5-[4-(difluoromethyl)-6-[[(1S)-2,2,2-trifluoro-1-methyl-ethyl]amino]-3-pyridyl]-N-[(1S,3S)-3-hydroxycyclopentyl]thiazole-2-carboxamide]				
0.0011	97	0.018		C[C@H](Nc1cc(C(F)F)c(-c2sc(C(=O)N[C@@H]3CC[C@@H](O)C3)nc2C(=O)N2CC(F)(F)C[C@@H]2C)cn1)C(F)(F)F [Example 410, 4-[(2S)-4,4-Difluoro-2-methyl-pyrrolidine-1-carbonyl]-5-[4-(difluoromethyl)-6-[[(1S)-2,2,2-trifluoro-1-methyl-ethyl]amino]-3-pyridyl]-N-[(1R,3R)-3-hydroxycyclopentyl]thiazole-2-carboxamide]				
0.0087			0.41	C[C@H](Nc1cc(C(F)F)c(-c2sc(C(=O)N[C@H]3COC[C@H]3O)nc2C(=O)N2CCC[C@@H]2C)cn1)C(F)(F)F (single isomer, unassigned) [Example 160, 5-(4-(Difluoromethyl)-6-(((S)-1,1,1-trifluoropropan-2-yl)amino)pyridin-3-yl)-N-((3S*,4S*)-4-hydroxytetrahydrofuran-3-yl)-4-((S)-2-methylpyrrolidine-1-carbonyl)thiazole-2-carboxamide]	101* %			
0.0038	99	0.069		C[C@H](Nc1cc(C(F)F)c(-c2sc(C(=O)N[C@@H]3CC[C@@H](O)C3)nc2C(=O)N2CCC[C@@H]2C)cn1)C(F)(F)F [Example 289, 5-(4-(Difluoromethyl)-6-(((S)-1,1,1-trifluoropropan-2-yl)amino)pyridin-3-yl)-N-((1R,3R)-3-hydroxycyclopentyl)-4-((S)-2-methylpyrrolidine-1-carbonyl)thiazole-2-carboxamide]				
